Where a chain is given by its changes, count along the chain named. Where two headings read alike, the source gives them in different places. Values belong to the molecule of their own block, whether it stands above or below them. No end group written: not given here.
Columns and labels:
CAPN5-R243L = CAPN5-R243L (Homo sapiens, UniProt O15484, R243L); experiment: FRET-based CAPN5 inhibition assay, R243L mutant protease; type: biochemical
Method: (§1) We have optimized the CAPN5 assay and developed a high throughput CAPN5 inhibition assay which utilizes 384-well plates and uses less than 50 nM protease for each experimental condition. Calpain proteolytic activity was measured by hydrolysis of DABCYL-TPLKSPPPSPR (SEQ ID NO:3)-EDANS (Calpain Substrate III; Calbiochem). Briefly, 50 nM of purified CAPN5-G267S protease core domain was added to a reaction buffer containing 50 mM imidazole (pH 7.0), 200 mM NaCl, 20 mM CaCl2, 1 mM EDTA, 8 mM Li-acetate, 0.19 mM Facade®-EPC, 1 mM TCEP, 0.8% (v/v) glycerol, 4% (v/v) 1,3-butanediol. 8 μL of protease was added to each well of the 384-well plates. Varying concentrations of […] (final concentration of 0.1 μM to 100 μM; 4 μL in each well) were added and the reaction was incubated at 37° C. for 30 minutes. After incubation, 8 μL of Calpain Substrate III was added to each well (final concentration of 40 μM; total reaction volume was 20 μL) and EDANS signal was measured on a fluorimetric plate reader (Tecan Spark, Mannedorf Switzerland). All experiments were performed in triplicate. Reaction rates were fit to the Hill equation to determine the IC50 values in GraphPad Prism 8. This assay condition is compatible with CAPN1 and CAPN5 wild-type. We have chosen CAPN5-G267S for initial inhibitor screening, since it has higher activity than CAPN5 wild-type and the mutation is located at the G2-loop which is away from the active site that is likely to have identical specificity to CAPN5 wild-type specificity.
(§2) We have identified the PDGFB protein as a substrate. We discovered a likely proteolytic site for CAPN5 on PDGFB, and sought to use this information to inhibit proteolysis assuming the alteration of a robust endogenous substrate of CAPN5 would create an opportunity for more specific inhibition of CAPN5. We generated two artificial peptides by methylating only P1-Lysine (1-Methylated; FIG. 7A) or both P1-Lysine and P1′-Lysine (2-Methylated; FIG. 7B) expecting the methylation would make the PDGFB peptide motif resistant to CAPN5 proteolysis. We tested their inhibitory potential against CAPN5-G267S using our high throughput FRET-based CAPN5 inhibition assay. […] We further tested them with the CAPN5 wild-type and CAPN5-R243L mutant proteases. Both methylated PDGFB peptides inhibited CAPN5-R243L activity at the nanomolar IC50 (FIG. 7E).

CAPN5 wild-type = CAPN5 wild-type (Homo sapiens, UniProt O15484); experiment: FRET-based CAPN5 inhibition assay, wild-type protease; type: biochemical; details: for IC50: CAPN5 WT; for inhibition of wildtype CAPN5: CAPN5 wild-type
CAPN5 wild-type, sequence (O15484 whole entry): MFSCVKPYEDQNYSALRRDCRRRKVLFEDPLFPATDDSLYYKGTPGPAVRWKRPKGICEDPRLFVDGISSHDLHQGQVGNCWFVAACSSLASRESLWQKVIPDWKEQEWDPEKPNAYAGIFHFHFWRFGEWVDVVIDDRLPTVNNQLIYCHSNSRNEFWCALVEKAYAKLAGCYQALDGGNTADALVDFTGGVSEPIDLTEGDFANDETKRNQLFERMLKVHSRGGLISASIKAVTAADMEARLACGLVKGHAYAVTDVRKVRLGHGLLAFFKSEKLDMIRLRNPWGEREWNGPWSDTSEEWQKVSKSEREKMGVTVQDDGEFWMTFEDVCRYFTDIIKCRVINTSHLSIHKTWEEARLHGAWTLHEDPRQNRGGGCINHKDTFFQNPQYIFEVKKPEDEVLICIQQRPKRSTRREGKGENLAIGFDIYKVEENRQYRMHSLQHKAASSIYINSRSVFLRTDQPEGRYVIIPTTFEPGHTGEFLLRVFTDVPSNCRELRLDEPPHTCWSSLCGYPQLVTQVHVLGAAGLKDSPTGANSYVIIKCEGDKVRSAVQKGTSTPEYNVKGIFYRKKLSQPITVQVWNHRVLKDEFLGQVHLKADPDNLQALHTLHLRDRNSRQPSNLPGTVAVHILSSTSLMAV
Method: as §1, §2

CAPN5-PC p.G267S = molecular target: T1, CAPN5-PC p.G267S (Homo sapiens, UniProt O15484, G267S); experiment: In vitro CAPN5 activity assay with consensus FRET peptides; type: biochemical; details: 1.6 μM CAPN5-PC p.G267S, 10 mM Ca^2+
T1 construct: active recombinant CAPN5 protease core (CAPN5-PC)
T1 sequence (O15484 26-343 G267S limits assumed): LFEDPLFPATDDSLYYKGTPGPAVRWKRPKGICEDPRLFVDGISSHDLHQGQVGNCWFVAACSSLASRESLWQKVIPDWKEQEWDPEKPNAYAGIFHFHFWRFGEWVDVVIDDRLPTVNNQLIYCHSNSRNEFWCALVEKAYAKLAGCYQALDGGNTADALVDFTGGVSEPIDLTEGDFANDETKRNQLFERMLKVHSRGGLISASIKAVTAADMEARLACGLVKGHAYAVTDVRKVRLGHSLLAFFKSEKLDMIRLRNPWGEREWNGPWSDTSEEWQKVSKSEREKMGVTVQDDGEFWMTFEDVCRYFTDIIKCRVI
Method: Consensus FRET peptides were synthesized based on the highest scoring amino acids at each position of the PSSM (Peptides P4′A, P4′P, P2R, and P3GP1′ V) and were tested in our in vitro CAPN5 activity assay (FIG. 9B). These substrates were hydrolyzed by 1.6 μM CAPN5-PC p.G267S in the presence of 10 mM Ca^2+. […] The catalytic efficiency (kcat/Km) of this peptide was higher than the observed kcat/Km for our previously determined PR1476 peptide (11 vs. 7 M^−1s^−1; FIG. 9D).

[1] = molecular target: T2, Calpain-5 protease core domain (CAPN5-PC) (Homo sapiens, UniProt O15484); experiment: CAPN5 functional assay (FRET peptide substrate kinetics)
T2 sequence (O15484 26-343 limits assumed): T1 sequence (O15484 26-343 G267S limits assumed) with S242G
Method: The assay was performed using a Greiner 96-well Black Small Volume plate according to the following protocol for measuring enzymatic activity of the calpain-5 protease: • Dilute CAPN5 in activity buffer to make a master mix at 3 concentrations. • Add 50 μL of substrate diluted with activity buffer (7 working concentrations at 2×). • Add 50 μL of CAPN5 to each well with multi-channel pipette. • Measure fluorescence activity (336/490 nm) on Tecan Spark at 37° C. for 2 hours with recordings taken every 2 minutes (with lid). • Convert RFU values to nM product using standard curve of EDANS concentrations (2 nM to 5 μM). • Calculate reaction velocity (slope) at each substrate concentration using linear regression. • Calculate Michaelis-Menten kinetic parameters in GraphPad Prism 8.

Human CAPN5-PC = Human CAPN5-PC (Homo sapiens, UniProt O15484); experiment: Human CAPN5-PC | Ki (µM)
Human CAPN5-PC, sequence (O15484 26-343): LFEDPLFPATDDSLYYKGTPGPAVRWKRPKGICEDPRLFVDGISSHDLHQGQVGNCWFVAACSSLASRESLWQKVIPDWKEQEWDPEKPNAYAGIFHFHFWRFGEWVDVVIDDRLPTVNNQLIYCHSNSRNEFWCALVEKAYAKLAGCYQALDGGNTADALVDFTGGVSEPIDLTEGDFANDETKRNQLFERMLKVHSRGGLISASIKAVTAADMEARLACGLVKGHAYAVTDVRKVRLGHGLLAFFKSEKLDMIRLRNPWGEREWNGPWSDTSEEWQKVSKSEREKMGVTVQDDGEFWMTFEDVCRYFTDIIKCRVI
Method: Table printed on a drawing sheet, FIG. 1C
Head of the field: Human CAPN5-PC | Ki (µM)
The patent's description of the figure: FIGS. 1A-1C show kinetic analysis of human CAPN5 and rat CAPN1 with the peptide substrates, RQNRGGGCINH (SEQ ID NO:1, FIG. 1A) and PLFAER (SEQ ID NO:2, FIG. 1B).
FIGS. 1A-1B show kinetic analysis of human CAPN5 and rat CAPN1 with the peptide substrates, RQNRGGGCINH (SEQ ID NO:1, FIG. 1A) and PLFAER (SEQ ID NO:2, FIG. 1B) using this protocol. […] A 10 mM PR1476 master stock was prepared in 100% DMSO. 3.69 mM PR1478 master stock was prepared in 50% DMSO/50% activity buffer.
First copying reader's note: Enzyme kinetic parameters of peptide substrates with calpain protease cores; the ± error stands inside the cells.
Where the first naming reader finds the target: head: Human CAPN5-PC

CAPN5-R243L, sequence (O15484 whole entry R243L, the tested form may be a part): as the sequence (O15484 whole entry) above, with R243L counted along it

Molecule: CCCC[C@@H](C=O)NC(=O)[C@H](CC(C)C)NC(=O)OCc1ccccc1 [Calpeptin]
inhibition of CAPN5-R243L (mutant CAPN5) (CAPN5-R243L): did not show any inhibition
inhibition of CAPN5-R243L (mutant CAPN5) (CAPN5-R243L; listed as calpeptin): not the mutant CAPN5
IC50 (CAPN5 wild-type): nanomolar
inhibition of wildtype CAPN5 (CAPN5 wild-type): inhibit the wildtype

Molecule: CC(=O)N[C@@H](CC(C)C)C(=O)N[C@@H](CC(C)C)C(=O)N[C@H](C=O)CCCNC(=N)N [Leupeptin]
inhibition of CAPN5-R243L (mutant CAPN5) (CAPN5-R243L): did not show any inhibition
inhibition of CAPN5-R243L (mutant CAPN5) (CAPN5-R243L; listed as leupeptin): not the mutant CAPN5
IC50 (CAPN5 wild-type): nanomolar
inhibition of wildtype CAPN5 (CAPN5 wild-type): inhibit the wildtype

hydrolysis by CAPN5-PC p.G267S (CAPN5-PC p.G267S): hydrolyzed
Molecule: EGKAVLEA (also: FRET labels, places not given here) [P3GP1′V, consensus FRET peptide substrate of calpain-5]

hydrolysis by CAPN5-PC p.G267S (CAPN5-PC p.G267S): hydrolyzed
Molecule: EVKALEEA (also: FRET labels, places not given here) [P4′A, consensus FRET peptide substrate of calpain-5]

hydrolysis by CAPN5-PC p.G267S (CAPN5-PC p.G267S): hydrolyzed
Molecule: EVKALEEP (also: FRET labels, places not given here) [P4′P, consensus FRET peptide substrate of calpain-5]

Molecule: EVRALEEA (also: FRET labels, places not given here) [P2R, consensus FRET peptide substrate of calpain-5]
hydrolysis by CAPN5-PC p.G267S (CAPN5-PC p.G267S): hydrolyzed
substrate turnover (kcat), preference (CAPN5-PC p.G267S): preferred by CAPN5-PC

Molecule: RQNRGGGCINH (N-terminal Dabcyl, EDANS on glutamate, C-terminal cap; calpain-5 peptide substrate) [PR1476]
activity as substrate with CAPN5 ([1]; CAPN5 0, 0.16, 0.49, 1.6 μm, peptide 0 μM to 160 μM): displays activity in a CAPN5 dose-dependent manner
substrate quality / sensitivity to CAPN5-PC activity ([1]; comparison between substrates): more sensitive than other generic calpain substrates

Ki (Human CAPN5-PC): 43 ± 14 µM
Molecule: RQNRGGGCINH (not fully specified (N-terminus)) [PR1476]

Reference: patent US12486528B2, “Compositions and methods for measuring and inhibiting calpain-5 activity” (The Board of Trustees of the Leland Stanford Junior …, priority 2019, dated 2025)
